Results on one compound are retold here after patent US10159678B2, “Methods to decrease susceptibility to asthmatic bronchoconstriction” (Cornell University, priority 2012, dated 2018).

Experiment [1] has as its system lung sphingolipid composition. As to the kind of experiment: Lung sphingolipid composition by UPLC-MS/MS after intranasal myriocin. In kind it is in vivo, BALB/c mice. As to the method:
Animal studies described herein were conducted under protocols approved by the Institutional Animal Care and Use Committee of Weill Cornell Medical College. Female BALB/c mice, obtained from Taconic Farms (Tarrytown, N.Y.). Animals were housed under specific pathogen-free conditions and used at 6 to 8 weeks of age. Myriocin (Enzo Life Sciences, Plymouth Meeting, Pa.) was freshly prepared from a 10 mM stock solution to a 1 mM or 100 μM solution in 0.9% saline and 0.05% fatty acid free bovine serum albumin and 50 μl were administered intranasally. Control animals received the vehicle solution (1% DMSO in 0.9% saline, […] BSA) or were naïve. Three hours later the animals underwent pulmonary function testing and were sacrificed. Heterozygous SPT-deficient mice (Sptlc2^+/−) or homozygous controls (Sptlc2^+/+) were bred, identified by genotyping using procedures like those described by Hojjati et al. (2005) and used at 6-8 weeks of age.
Lungs were harvested following perfusion with phosphate-buffered saline (PBS, Invitrogen, Carlsbad, Calif.) containing 0.6 mM ethylenediamine tetra acetic acid dipotassium salt dehydrate (EDTA, Invitrogen) via the right ventricle to remove blood cells from the pulmonary circulation. The lungs were then homogenized in normal PBS. De-novo sphingolipid synthesis was assessed by evaluating incorporation of ^3H-serine (24.1 Ci/mmol, Perkin Elmer (Boston, Mass.) into ceramide and sphingosine. Sphingolipid synthesis through the recycling pathway was assessed by evaluating incorporation of ^3H-sphingosine (18.2 Ci/mmol, Perkin Elmer (Boston, Mass.) into ceramide and sphingomyelin. In both assays, equal amounts of fresh lung homogenates were incubated for 30 min at 37° C. with 2 μl of the radioactive tracer, followed by lyophilization to determine dry weight, lipid extraction with chloroform/methanol/water (1:1:0.9). The organic phase was evaporated, dissolved in 50 μl chloroform/methanol (1:1) spotted on […] chromatography plates (TLC) (Merck Silica gel 60, Darmstadt, Germany) and chromatographed for 25 min with chloroform-methanol-ammonium hydroxide (65:25:4 v/v). Ceramides, sphingomyelin, phosphatidylserine, sphinganine and sphingosine, all dissolved at 1 μg/μl were run as standards. The lipids were identified according to their Rf values after visualization in an iodine vapor tank. The TLC plate was cut at the corresponding lipid spot, mixed with scintillation fluid (Ultima Gold, Packard Instrument Company, CT) and analyzed in a scintillation counter (Perkin Elmer Wallac, Gaithersburg, Md.). Results are calculated as dpm/mg protein.
Sphinganine, sphingosine, sphinganine-1-phosphate, sphingosine-1-phosphate, ceramides (Cer16, Cer18, Cer20, Cer22, Cer24:1, Cer24) were quantified in lung homogenates by ultra-performance liquid chromatography-tandem mass spectrometry (UPLC-MS/MS), on a Waters Xevo, equipped with a Waters BEH Phenyl UPLC Column (ACQUITY UPLC BEH Phenyl Column, 3.0×100 mm, 1.7 μm and a ACQUITY BEH Phenyl VanGuard Pre-column, 2.1×5 mm, 1.7 μm in the Columbia University Lipid Core as reported by Shaner et al. (2009) with minor modifications. […] of an internal standard mix (Avanti Polar Lipids, Mix 1) in ethanol, 0.5 ml methanol and 0.25 ml chloroform were added to the lyophilized lung homogenates and sonicated for 12 h at 48° C. After centrifugation at 10,000 g for 5 min, the supernatant was evaporated in a glass tube and resuspended in 100 μl methanol. 10 μl were injected into the UPLC-MS/MS. Results are calculated as pmol/mg.
Myriocin is a potent and specific inhibitor of SPT that affects SPT independent of orm. To assess if direct administration of myriocin to the respiratory tract affects pulmonary sphingolipid synthesis, the lung sphingolipid composition was determined by ultra-performance liquid chromatography-tandem mass spectrometry (UPLC-MS/MS) 3 h following intranasal administration of myriocin.

Experiment [2] concerns ORMDL1, ORMDL2 and ORMDL3 mRNA. Nature of the experiment: ORMDL1, 2 and 3 mRNA expression in lung tissue (RealTime RT-PCR). In kind it is in vivo, mice. The conditions noted are these: 20 μg myriocin; FIG. 2H. As for the experimental part: RNA was extracted from lungs using TRIzol (Invitrogen). Following reverse transcription of 3 μg RNA, ORMDL1, 2 and 3 mRNAs were amplified using the following primers and probes (Roche Applied Science): RNA levels were quantified using the ΔΔCt method and normalized to expression of murine ribosomal 18s (4310893E, Applied Biosystems). To assess if ORMDL expression was altered with decreased activity of SPT, mRNA expression of ORMDL1, 2 and 3 in lung tissue was analyzed following myriocin treatment and in the Sptlc2^+/− mice. Expression of ORMDL1, 2 or 3 was not affected by myriocin (FIG. 2H) or by genetic SPT deficiency (FIG. 2I).

The test system of a further experiment is human bronchial rings. Nature of the experiment: Myograph contractile response of human bronchial rings in myriocin-containing bath. The conditions noted are these: 90 min in myriocin-containing bath solution (10 μM), then methacholine; FIG. 3E. As to the method:
Human bronchial tissues were obtained from patients (n=15) undergoing surgery for lung cancer. The study was approved by the IRB at Weill Cornell Medical College. Within 30 min following resection, segments of bronchi with an inner diameter of 3-5 mm were taken from areas as far removed from the malignancy as possible. Bronchi were placed in oxygenated KH and following removal of adhering fat and connective tissues four to eight rings of the same bronchus were prepared. Each set of bronchial rings was suspended under an initial tension of 300-350 mg in KH solution containing 0.01% BSA, bubbled with 95% O2 and 5% CO2 at 37° C. and then washed every 15 min for 1 h. K^+ solution (80 mM) was then used to achieve maximum contraction and myriocin (10 μM) or solvent was added 30 min after washout of the K^+ solution. Methacholine (0.01-1 μM) was added after 90 minutes. Experiments were conducted on parallel groups of four rings at a time. Contractile responses were measured and analyzed as for the murine rings.

The next experiment deals with isolated bronchial rings. Nature of the experiment: Myograph contractile response of bronchial rings isolated from myriocin-treated mice. The conditions noted are these: rings isolated from mice given myriocin (20 μg) intranasally; dose-dependent manner; FIG. 3C, 3D. The format is in vivo. As to the method:
To directly assess bronchial reactivity bronchi were dissected from myriocin treated mice, Sptlc2^+/− or naïve mice, and mounted on hooks in a multiwire myograph system (DMT, Ann Arbor, Mich.) where they were kept at a resting tension of 200-250 mg in Krebs Henseleit (KH) solution at 37° C. (95% O2, 5% CO2). In addition, bronchial rings from naïve mice were bathed in myriocin (10 μM) for 3 h in the myograph before analysis. Mechanical forces were measured isometrically with force transducers interfaced to a data acquisition system (ADInstruments, Colorado Springs, Colo.) and analyzed with LabChart6Pro for Windows. Potassium (80 mM) was used to achieve maximum contraction and methacholine (0.01-10 μM) was added 30 min after washout of the K^+ solution. Contractile responses were measured as percentage of the response to K^+.

Consider `CCCCCCC(=O)CCCCCC/C=C/C[C@@H](O)[C@H](O)[C@@](N)(CO)C(=O)O` [myriocin], for which the “sphinganine in the lung” value in experiment [1] (3 h following intranasal administration of myriocin (20 μg), FIG. 1A) was “reduced”. In addition, in experiment [1] (3 h following intranasal myriocin (20 μg), FIG. 1B), the “sphingosine levels in the lung” value was “not significantly decreased”. Moreover, in experiment [1] (3 h following intranasal myriocin (20 μg), FIG. 1C), the “sphinganine-1P (Sa1P) levels in the lung” value is “not significantly decreased”. Also, the “sphingosine-1P (S1P) levels in the lung” value in experiment [1] (3 h following intranasal myriocin (20 μg), FIG. 1D) is on record as “not significantly decreased”. The “sum of ceramides (C14, C16, C18, C20, C22, C24, C24:1) in the lung” value in experiment [1] (3 h following intranasal myriocin (20 μg), FIG. 1E-1G) is listed as “decreased”. Besides, in experiment [1] (3 h following intranasal myriocin, FIGS. 1F and 1G), the “certain individual ceramides in the lung” value is given as “individually decreased”. Moreover, the “Expression of ORMDL1, 2 or 3 in lung tissue” value in experiment [2] is “not affected”. Moreover, the “contractile force of human bronchial rings” value in the experiment with human bronchial rings is on record as “increased contractile force”. In addition, the “contractile responses of bronchial rings to methacholine” value with isolated bronchial rings is recorded as “increased”.
